Results from patent US11384074B2, “Pesticidally active pyrrole derivatives” (Syngenta Participations AG, priority 2017, dated 2022).

Legend:
Format in all cases: in vivo
[1] = system: Tetranychus urticae (Two-Spotted Spider Mite); assay: Tetranychus urticae feeding/contact activity on sprayed bean leaf discs; settings: foliar, 192 h, application rate of 200 ppm, mite population of mixed ages, assessed 8 days after infestation, read-out: control (mortality on mixed population, mobile stages)
Protocol: Tetranychus urticae (Two-Spotted Spider Mite): Feeding/Contact Activity
Bean leaf discs on agar in 24-well microtiter plates were sprayed with aqueous test solutions prepared from 10′000 ppm DMSO stock solutions. After drying the leaf discs were infested with a mite population of mixed ages. The samples were assessed for mortality on mixed population (mobile stages) 8 days after infestation.

[2] = system: Myzus persicae (Green Peach Aphid); assay: Myzus persicae feeding/contact activity on sprayed sunflower leaf discs; settings: foliar, 144 h, application rate of 200 ppm, aphid population of mixed ages, assessed 6 days after infestation, read-out: control (mortality)
Protocol: Myzus persicae (Green Peach Aphid): Feeding/Contact Activity
(§1) Sunflower leaf discs were placed onto agar in a 24-well microtiter plate and sprayed with aqueous test solutions prepared from 10′000 ppm DMSO stock solutions. After drying, the leaf discs were infested with an aphid population of mixed ages. The samples were assessed for mortality 6 days after infestation.

[3] = system: Diabrotica Balteata (Corn Root Worm); assay: Diabrotica balteata (corn root worm) mortality on sprayed maize sprouts; settings: 96 h, application rate of 200 ppm, L2 larvae, assessed 4 days after infestation, read-out: control (mortality)
Protocol: Diabrotica Balteata (Corn Root Worm):
Maize sprouts placed onto an agar layer in 24-well microtiter plates were treated with aqueous test solutions prepared from 10′000 ppm DMSO stock solutions by spraying. After drying, the plates were infested with L2 larvae (6 to 10 per well). The samples were assessed for mortality 4 days after infestation.

[4] = system: Plutella xylostella (Diamond Back Moth); assay: Plutella xylostella feeding/contact activity on treated artificial diet; settings: 120 h, application rate of 200 ppm, L2 larvae, assessed 5 days after infestation, read-out: control (mortality)
Protocol: Plutella xylostella (Diamond Back Moth): Feeding/Contact Activity
24-well microtiter plates with artificial diet were treated with aqueous test solutions prepared from 10′000 ppm DMSO stock solutions by pipetting. After drying, the plates were infested with L2 larvae (10 to 15 per well). The samples were assessed for mortality 5 days after infestation.

[5] = system: Thrips tabaci (Onion thrips); assay: Thrips tabaci feeding/contact activity on sprayed sunflower leaf discs; settings: foliar, 144 h, application rate of 200 ppm, thrips population of mixed ages, assessed 6 days after infestation, read-out: control (mortality)
Protocol: Thrips tabaci (Onion thrips): Feeding/Contact Activity
as §1, with “on” for “onto”, “in” for “in a”, “plates” for “plate”, “drying” for “drying,”, “a thrips” for “an aphid”

[6] = system: Spodoptera littoralis (Egyptian Cotton Leaf Worm); assay: Spodoptera littoralis feeding/contact activity on sprayed cotton leaf discs; settings: foliar, 72 h, application rate of 200 ppm, L1 larvae, assessed 3 days after infestation, read-out: control (mortality)
Protocol: Spodoptera littoralis (Egyptian Cotton Leaf Worm): Feeding/Contact Activity
Cotton leaf discs were placed onto agar in 24-well microtiter plates and sprayed with aqueous test solutions prepared from 10′000 ppm DMSO stock solutions. After drying the leaf discs were infested with five L1 larvae. The samples were assessed for mortality 3 days after infestation.

[7] = system: Euschistus heros (Neotropical Brown Stink Bug); assay: Euschistus heros feeding/contact activity on sprayed soybean leaves; settings: 120 h, application rate of 200 ppm, N2 nymphs, assessed 5 days after infestation, read-out: control (mortality)
Protocol: Euschistus heros (Neotropical Brown Stink Bug): Feeding/Contact Activity
Soybean leaves on agar in 24-well microtiter plates were sprayed with aqueous test solutions prepared from 10′000 ppm DMSO stock solutions. After drying the leaves were infested with N2 nymphs. The samples were assessed for mortality 5 days after infestation.

Measured: mortality at 200 ppm

Cn1cc(C(F)(F)C(F)(F)F)c(C(F)(F)F)c1-n1cc(-c2cc(C(=O)NC3CC3)c(C#N)s2)cn1 [Compound 1, 2-cyano-N-cyclopropyl-5-[1-[1-methyl-4-(1,1,2,2,2-pentafluoroethyl)-3-(trifluoromethyl)pyrrol-2-yl]pyrazol-4-yl]thiophene-3-carboxamide]
≥ 80%: all assays above

Cn1cc(C(F)(F)F)c(C(F)(F)C(F)(F)F)c1-n1cc(-c2cc(C(=O)NC3CC3)c(C#N)s2)cn1 [Compound 2, 2-cyano-N-cyclopropyl-5-[1-[1-methyl-3-(1,1,2,2,2-pentafluoroethyl)-4-(trifluoromethyl)pyrrol-2-yl]pyrazol-4-yl]thiophene-3-carboxamide]
not listed: [5]
≥ 80%: all other assays above

Cn1cc(C(F)(F)C(F)(F)F)c(C(F)(F)F)c1-c1cc(-c2cc(C(=O)NC3CC3)c(C#N)s2)on1 [Compound 3, 2-cyano-N-cyclopropyl-5-[3-[1-methyl-4-(1,1,2,2,2-pentafluoroethyl)-3-(trifluoromethyl)pyrrol-2-yl]isoxazol-5-yl]thiophene-3-carboxamide]
not listed: [2]
≥ 80%: all other assays above

Cn1cc(C(F)(F)F)c(C(F)(F)C(F)(F)F)c1-c1cc(-c2cc(C(=O)NC3CC3)c(C#N)s2)on1 [Compound 4, 2-cyano-N-cyclopropyl-5-[3-[1-methyl-3-(1,1,2,2,2-pentafluoroethyl)-4-(trifluoromethyl)pyrrol-2-yl]isoxazol-5-yl]thiophene-3-carboxamide]
not listed: [2] | [7]
≥ 80%: all other assays above

Cn1c(-n2cc(-c3ccc(Cl)c(C(=O)NC4(C#N)CC4)c3)cn2)cc(C(F)(C(F)(F)F)C(F)(F)F)c1Cl [Compound 5, 2-chloro-5-[1-[5-chloro-1-methyl-4-[1,2,2,2-tetrafluoro-1-(trifluoromethyl)ethyl]pyrrol-2-yl]pyrazol-4-yl]-N-(1-cyanocyclopropyl)benzamide]
≥ 80%: [1] | [3] | [4] | [6]

Cn1c(Cl)c(C(F)(C(F)(F)F)C(F)(F)F)c(Br)c1-n1cc(-c2ccc(Cl)c(C(=O)NC3(C#N)CC3)c2)cn1 [Compound 6, 5-[1-[3-bromo-5-chloro-1-methyl-4-[1,2,2,2-tetrafluoro-1-(trifluoromethyl)ethyl]pyrrol-2-yl]pyrazol-4-yl]-2-chloro-N-(1-cyanocyclopropyl)benzamide]
≥ 80%: [1] | [3] | [4] | [6]

Cn1c(Br)cc(C(F)(C(F)(F)F)C(F)(F)F)c1-c1cc(-c2ccc(Cl)c(C(=O)NC3(C#N)CC3)c2)on1 [Compound 7, 5-[3-[5-bromo-1-methyl-3-[1,2,2,2-tetrafluoro-1-(trifluoromethyl)ethyl]pyrrol-2-yl]isoxazol-5-yl]-2-chloro-N-(1-cyanocyclopropyl)benzamide]
≥ 80%: [2] | [3] | [4] | [6]
